From patent publication US10640520B2, “Boronic acid derivatives” (MERCK PATENT GMBH, priority 2014, dated 2020)

Assays:
[1] = biological target: LMP7 subunit of the immunoproteasome (Homo sapiens, UniProt P20618+P28062); conditions: Singh et al., Br. J. Hematology 152(2): 155-163; cited from earlier work
[2] = biological target: Beta5 (Homo sapiens, UniProt P20618+P28074); assay: Determination of Beta5 activity (fluorescence intensity assay, Suc-LLVY-AMC); format: biochemical; conditions: incubation for 20 minutes; for IC50: purified human constitutive proteasome
Description: Determination of Beta5 Activity:
Measurement of Beta5 inhibition is performed in 384 well format based on fluorescence intensity assay.
(§1) Purified human constitutive proteasome (1.25 nM) and serial diluted compounds in DMSO (range of concentrations from 30 μM to 15 μM) or controls are incubated for 20 minutes or 120 minutes (long incubation) at 25° C. in assay buffer containing 50 mM Tris pH 7.4, 0.03% SDS, 1 mM EDTA and 1% DMSO. The reaction is initiated by the addition of the fluorogenic peptide substrate, Suc-LLVY-AMC (Bachem 1-1395), at a concentration of 40 μM. After 60 minutes of incubation at 37° C., fluorescence intensity is measured at λex=350 nm and λem=450 nm with a fluorescence reader (Perkin Elmer Envision reader or equivalent).
(§2) Unless indicated otherwise the results are obtained after incubation for 20 minutes.

[3] = biological target: LMP7 (Homo sapiens, UniProt P20618+P28062); assay: Determination of LMP7 activity (fluorescence intensity assay, Suc-LLVY-AMC); format: biochemical; conditions: purified human immunoproteasome, incubation for 20 minutes
Description: Determination of LMP7 Activity:
Measurement of LMP7 inhibition is performed in 384 well format based on fluorescence intensity assay.
as §1, with “immunoproteasome (0.25” for “constitutive proteasome (1.25”, “pM)” for “μM)”
as §2

Row | SMILES | selectivity for the LMP7 subunit of the immunoproteasome [1] [fold] | Selectivity LMP7 vs Beta5 [2] | IC50 [2] [nM] | IC50 [3] [nM]
1 | CC1=C(C(=O)N[C@H](C)C(=O)N[C@@H](Cc2c[nH]c3ccccc23)C(=O)N[C@@H](Cc2ccccc2)C(=O)[C@@]2(C)CO2)Cc2ccccc21 [PR-924] | 100 | – | – | –
2 | O=C(CCN1CCCC1=O)N[C@@H](Cc1coc2ccccc12)B(O)O [Compound 19, [(1R)-2-(benzofuran-3-yl)-1-[3-(2-oxopyrrolidin-1-yl)propanoylamino]-ethyl]boronic acid] | – | ++++ (50 ≤ Selectivity < 70) | 50 to 500 | < 50
3 | O=C(CCN1CCOCC1=O)N[C@@H](Cc1coc2ccccc12)B(O)O [Compound 28, [(1R)-2-(benzofuran-3-yl)-1-[3-(3-oxomorpholin-4-yl)propanoylamino]-ethyl]boronic acid] | – | ++ (10 ≤ Selectivity < 30) | 50 to 500 | < 50
4 | O=C(CCN1CCCCC1=O)N[C@H](Cc1ccccc1)B(O)O [Compound 3, [(1S)-1-[3-(2-oxo-1-piperidyl)propanoylamino]-2-phenyl-ethyl]boronic acid] | – | +++ (30 ≤ Selectivity < 50) | 500 to 5000 | 50 to 500
5 | Cc1ccc(C[C@H](NC(=O)CCN2CCCCS2(=O)=O)B(O)O)c(C)c1 [Compound 32, [(1R)-2-(2,4-dimethylphenyl)-1-[3-(1,1-dioxothiazinan-2-yl)propanoylamino]ethyl]boronic acid] | – | +++ (30 ≤ Selectivity < 50) | 500 to 5000 | < 50
6 | Cc1ccc(C[C@H](NC(=O)CCN2CCN(c3ccccc3)C2=O)B(O)O)cc1 [Compound 15, [(1R)-1-[3-(2-oxo-3-phenyl-imidazolidin-1-yl)propanoylamino]-2-(p-tolyl)ethyl]boronic acid] | – | ++ (10 ≤ Selectivity < 30) | 50 to 500 | < 50
7 | O=C(CCN1C(=O)CCCC1=O)N[C@@H](Cc1ccccc1)B(O)O [Compound 5, [(1R)-1-[3-(2,6-dioxo-1-piperidyl)propanoylamino]-2-phenyl-ethyl]-boronic acid] | – | +++ (30 ≤ Selectivity < 50) | > 5000 | 500 to 5000
8 | O=C(CCN1CCN(c2ccccc2)C1=O)N[C@@H](Cc1ccc(F)cc1)B(O)O [Compound 14, [(1R)-2-(4-fluorophenyl)-1-[3-(2-oxo-3-phenyl-imidazolidin-1-yl)propanoylamino]ethyl]boronic acid] | – | ++ (10 ≤ Selectivity < 30) | 50 to 500 | < 50
9 | O=C(CCN1CCCC1=O)N[C@@H](Cc1cccc2ccccc12)B(O)O [Compound 10, [(1R)-2-(1-naphthyl)-1-[3-(2-oxopyrrolidin-1-yl)propanoylamino]ethyl]-boronic acid] | – | ++ (10 ≤ Selectivity < 30) | 500 to 5000 | 50 to 500
10 | O=C(CCN1CCCC1=O)N[C@@H](Cc1ccc2c(c1)OCCO2)B(O)O [Compound 8, [(1R)-2-(2,3-dihydro-1,4-benzodioxin-6-yl)-1-[3-(2-oxopyrrolidin-1-yl)propanoylamino]ethyl]boronic acid] | – | +++ (30 ≤ Selectivity < 50) | 500 to 5000 | < 50
11 | O=C(CCN1CCCCCC1=O)N[C@@H](Cc1ccccc1)B(O)O [Compound 13, [(1R)-1-[3-(2-oxoazepan-1-yl)propanoylamino]-2-phenyl-ethyl]boronic acid] | – | ++ (10 ≤ Selectivity < 30) | 500 to 5000 | 50 to 500
12 | Cc1ccc(C[C@H](NC(=O)CCN2CCCCC2=O)B(O)O)c(C)c1 [Compound 31, [(1R)-2-(2,4-dimethylphenyl)-1-[3-(2-oxo-1-piperidyl)propanoylamino]-ethyl]boronic acid] | – | +++++ (Selectivity ≥ 70) | 500 to 5000 | < 50
13 | Cc1ccc(C[C@H](NC(=O)CCN2CCCCC2=O)B(O)O)cc1C [Compound 25, [(1R)-2-(3,4-dimethylphenyl)-1-[3-(2-oxo-1-piperidyl)propanoylamino]-ethyl]boronic acid] | – | +++++ (Selectivity ≥ 70) | 500 to 5000 | < 50
14 | O=C(CCN1CC(c2ccccc2)OC1=O)N[C@@H](Cc1coc2ccccc12)B(O)O (stereo partly drawn) [Compound 29, [(1R)-2-(benzofuran-3-yl)-1-[3-(2-oxo-5-phenyl-oxazolidin-3-yl)propanoylamino]ethyl]boronic acid] | – | ++ (10 ≤ Selectivity < 30) | < 50 | < 50
15 | Cc1ccc(C[C@H](NC(=O)CCN2C(=O)CCC2(C)C)B(O)O)cc1 [Compound 18, [(1R)-1-[3-(2,2-dimethyl-5-oxo-pyrrolidin-1-yl)propanoylamino]-2-(p-tolyl)ethyl]boronic acid] | – | +++ (30 ≤ Selectivity < 50) | 500 to 5000 | 50 to 500
